# In article PMC7357788, “Overlapping functions and protein-protein interactions of LRR-extensins in Arabidopsis” (PLoS Genetics, 2020):
# pKd: −log10 of the molar value. “Also recorded” adds a separate entry of the source.
# Assays:
# LRX1 (LRX1^ΔE-FLAG) = assay: BLITZ (biolayer interferometry) RALF1-LRX1 binding; design: species or system Arabidopsis thaliana; conditions: purified LRX^ΔE expressed in N. benthamiana, synthetic RALF1 peptide, association 120 s, dissociation 120 s
# Experimental: (§1) The kinetics of the interaction of LRX proteins with RALF1 were tested with Biolayer Interferometry (BLITZ). The LRX^ΔE-FLAG proteins of LRX1, LRX3, LRX4, and LRX5 used for this experiment were expressed transiently in tobacco. […] For RALF1, in vitro synthesized peptide was used. […] While the LRX^ΔE-FLAG had to be soluble in order to get purified prior to application on the sensor (for details, see Materials and Methods), it cannot be completely ruled out that LRX3^ΔE-FLAG has a reduced solubility in this experiment that would provide an alternative explanation for the observed high Kd.
# (§2) The BLITZ experiments were performed as previously described. The LRR^ΔE–FLAG versions of the different LRXs were expressed using the 35S promoter in N. benthamiana, presence of proteins was checked by immunoblotting, and proteins were immune-precipitated as described above. […] Protein concentration was determined by Qubit measurement (Quant-iTTM Protein Assay kit, Invitrogen). […] Different RALF synthetic peptide (PHTD peptides) concentrations (200 μM, 150 μM, 100 μM, 50 μM, 20 μM, 15 μM, 10 μM, 4 μM, 2 μM and 0.2 μM) were added to quantify the protein interaction.
# (§3) Supplementary file pgen.1008847.s004.pdf: S4 Fig BLITZ output data. […] Association/dissociation or RALF1 depends on the concentration of applied RALF1, based on which the Kd is calculated. […]
# LRX3 (LRX3^ΔE-FLAG) = assay: BLITZ (biolayer interferometry) RALF1-LRX3 binding; design: species or system Arabidopsis thaliana; conditions: compared with LRX1, LRX4, and LRX5
# Experimental: as §1, §2
# LRX4 (LRX4^ΔE-FLAG) = assay: BLITZ (biolayer interferometry) RALF1-LRX4 binding; design: species or system Arabidopsis thaliana; conditions: purified LRX^ΔE expressed in N. benthamiana, synthetic RALF1 peptide, association 120 s, dissociation 120 s
# Experimental: as §1, §2, §3
# LRX5 (LRX5^ΔE-FLAG) = assay: BLITZ (biolayer interferometry) RALF1-LRX5 binding; design: species or system Arabidopsis thaliana; conditions: purified LRX^ΔE expressed in N. benthamiana, synthetic RALF1 peptide, association 120 s, dissociation 120 s
# Experimental: as §1, §2
# LRX1^ΔE = assay: Co-IP of LRX1^ΔE-HA with RALF1-FLAG; format: binding, Arabidopsis thaliana; conditions: Co-IP and immunoblotting, transient expression in N. benthamiana
# Experimental: Here, we tested binding of RALF1 to LRX1.
# (§4) For pulldown and Co-IP analysis of the different constructs indicated in the experiments DNA was infiltrated into Nicotiana benthamiana leaves, and after 48 hrs, the leaves were excised and ground in liquid nitrogen as described in [62]. Two hundred mg of tissue powder was re-suspended in 500 μL extraction buffer [200 mM Tris-HCl (pH 7.5), 150 mM NaCl, 1 mM PMSF, protease inhibitor and 0.5% Triton X-100]. The suspension was incubated on ice for 30 minutes and then centrifuged at 11,000 rpm for 20 minutes at 4°C. The supernatant (200 μL) was then incubated with 10 μL anti-HA (Thermo Scientific, 88837), or anti-FLAG magnetic beads overnight at 4°C on a rotating shaker. If RALF1 peptide was added, the peptide was diluted in such way that for every sample 1μL of peptide was added to the protein extracts. After incubation, the beads were washed five times with the wash buffer (extraction buffer containing 0.05% Triton X-100) and boiled in SDS-PAGE loading buffer for 15 minutes at 75°C. The immunoprecipitates were then run on an SDS-PAGE gel and transferred to nitrocellulose membrane to perform immunoblotting using the following antibodies: anti-FLAG M2 (Sigma-Aldrich, F3165), anti-GFP (Biolegend, 902601), anti-HA-HRP 3F10 (Roche, 12 013 819 001) and anti-mouse-HRP (Sigma Aldrich, A 4416). […]
# LRX1 = assay: Yeast-two-hybrid RALF1-LRX1; format: binding, Arabidopsis thaliana; conditions: Y2H, yeast strain PJ69-4A, growth on -Trp, Leu, His, Ade drop-out medium
# Excerpt: (§5) The BD-LRX4 and AD-FER^ECD constructs for the Yeast-two-hybrid experiment were cloned as previously described, where NtermFER equals AD-FER^ECD and LRR4 equals BD-LRX4. For the BD-LRX1/2/3/5 constructs, the coding sequence of the LRR domain of the LRXs was amplified using primers (S3 Table) to introduce a BamHI and a XhoI site at the 5’ and 3’ end of the PCR fragments, respectively. These were cloned into pJET1.2 (Thermo Scientific) and correct clones were cut with BamHI and XhoI and ligated into pGBKT7 cut with BamHI and SalI. The AD-RALF1 construct was cloned into pJET1.2 (Thermo Scientific) by amplification of the coding sequence with the primers y2h_RALF1_F and y2h_RALF1_R. A correct clone was cut with EcoRI and XmaI and ligated into pGADT7 cut with EcoRI and XmaI.
# (§6) Transformation of the yeast strain PJ69-4A [63] was done following standard procedures and quadruple drop-out medium lacking Leu, Trp, His, and Ade were used to screen for positive interactions after 4 days incubation at 30°C. Three different colonies containing both vectors were mixed and plated in triplicates on quadruple drop-out medium.
# (§7) Supplementary file pgen.1008847.s002.pdf: S2 Fig Interaction of LRX1 and RALF1 in yeast. The yeast strain PJ69-4A was transformed with pGADT7-RALF1 and pGBKT7-LRR1 or pGBKT7-LRR4, and with either of the constructs with empty plasmids for the negative controls. […]
# LRX4 [1] = assay: Yeast-two-hybrid RALF1-LRX4; format: binding, Arabidopsis thaliana; conditions: Y2H, yeast strain PJ69-4A, growth on -Trp, Leu, His, Ade drop-out medium
# Excerpt: as §5, §6, §7
# [2] = test system: LRX1^ΔE-FER^ECD interaction; assay: Co-IP: effect of added RALF1 on LRX1^ΔE-FER^ECD interaction; format: binding, Arabidopsis thaliana; conditions: synthetic RALF1 peptide 50, 100, 200, 1000 nM added to extracts
# Excerpt: In a next step, the dynamics of LRX-RALF1-FER interaction was investigated with a focus on LRX1. To this end, extracts used to show Co-IP of LRX1^ΔE and FER^ECD were supplemented with increasing concentrations of RALF1 peptide.
# as §4, with “75°C.” for “75°C. The immunoprecipitates were then run on an SDS-PAGE gel and transferred to nitrocellulose membrane to perform immunoblotting using the following antibodies: anti-FLAG M2 (Sigma-Aldrich, F3165), anti-GFP (Biolegend, 902601), anti-HA-HRP 3F10 (Roche, 12 013 819 001) and anti-mouse-HRP (Sigma Aldrich, A 4416).”
# Arabidopsis seedlings = assay: Root growth inhibition assay; format: in vivo, Arabidopsis thaliana; conditions: five days in liquid medium, 1 μM RALF1, student T-test, n = 6, p<0.001 vs control
# Excerpt: Supplementary file pgen.1008847.s003.pdf: S3 Fig Synthetic RALF1 peptide activity. […] Error bars represent standard error of the mean. (PDF) Click here for additional data file.
# LRX3, LRX4, and LRX5 = conditions: vegetative tissues; ref [40],[41]; cited from earlier work
# Excerpt: LRX proteins were recently identified as high-affinity binding sites for RALF peptides, with the binding spectrum differing among the LRXs. […] Whether and how the binding of RALFs and FER to LRXs influences the interaction of these proteins remains to be investigated. It is also unknown to what extent the different LRXs are functionally similar and whether they share FER as a common interaction ...
# LRX4 [3] = conditions: ref [15],[41]; cited from earlier work
# FER = conditions: ref [15],[41]; cited from earlier work
# Chain of LRX3 (LRX3^ΔE-FLAG) (Q9T0K5 21-388 limits assumed, stated change not applied): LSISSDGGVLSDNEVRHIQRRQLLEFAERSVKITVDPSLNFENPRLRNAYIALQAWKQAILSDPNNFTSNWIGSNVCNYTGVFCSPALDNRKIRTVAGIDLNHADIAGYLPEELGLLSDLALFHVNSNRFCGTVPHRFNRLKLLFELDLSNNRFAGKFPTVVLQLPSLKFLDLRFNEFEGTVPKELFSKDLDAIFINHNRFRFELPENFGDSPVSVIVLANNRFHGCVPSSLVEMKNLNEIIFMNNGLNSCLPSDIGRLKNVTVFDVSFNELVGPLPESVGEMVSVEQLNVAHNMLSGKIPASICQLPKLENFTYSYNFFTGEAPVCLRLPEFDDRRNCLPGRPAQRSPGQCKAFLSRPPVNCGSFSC
# Chain of LRX4 (LRX4^ΔE-FLAG) (Q9LHF1 26-403 limits assumed, stated change not applied): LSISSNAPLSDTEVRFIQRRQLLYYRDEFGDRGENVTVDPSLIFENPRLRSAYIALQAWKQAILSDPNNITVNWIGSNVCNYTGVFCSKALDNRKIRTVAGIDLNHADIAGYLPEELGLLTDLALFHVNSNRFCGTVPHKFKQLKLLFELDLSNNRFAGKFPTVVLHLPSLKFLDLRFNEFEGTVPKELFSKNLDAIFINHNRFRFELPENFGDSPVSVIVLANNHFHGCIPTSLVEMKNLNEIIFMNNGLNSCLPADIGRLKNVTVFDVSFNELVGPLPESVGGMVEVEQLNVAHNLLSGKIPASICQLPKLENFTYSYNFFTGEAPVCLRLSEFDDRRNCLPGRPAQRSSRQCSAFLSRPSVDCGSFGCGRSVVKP
# Chain of LRX1 (LRX1^ΔE-FLAG) (O65375 27-381 limits assumed, stated change not applied): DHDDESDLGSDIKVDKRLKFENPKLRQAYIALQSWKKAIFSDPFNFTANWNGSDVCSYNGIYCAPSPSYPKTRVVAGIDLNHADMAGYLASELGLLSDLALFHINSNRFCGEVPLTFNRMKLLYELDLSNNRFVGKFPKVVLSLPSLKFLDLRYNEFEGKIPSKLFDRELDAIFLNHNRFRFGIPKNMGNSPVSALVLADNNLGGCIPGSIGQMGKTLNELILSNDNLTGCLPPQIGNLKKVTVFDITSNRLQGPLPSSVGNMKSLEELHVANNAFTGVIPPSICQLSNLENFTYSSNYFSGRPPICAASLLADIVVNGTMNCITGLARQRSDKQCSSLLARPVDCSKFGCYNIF
# Chain of LRX5 (LRX5^ΔE-FLAG) (Q9SN46 32-405 limits assumed, stated change not applied): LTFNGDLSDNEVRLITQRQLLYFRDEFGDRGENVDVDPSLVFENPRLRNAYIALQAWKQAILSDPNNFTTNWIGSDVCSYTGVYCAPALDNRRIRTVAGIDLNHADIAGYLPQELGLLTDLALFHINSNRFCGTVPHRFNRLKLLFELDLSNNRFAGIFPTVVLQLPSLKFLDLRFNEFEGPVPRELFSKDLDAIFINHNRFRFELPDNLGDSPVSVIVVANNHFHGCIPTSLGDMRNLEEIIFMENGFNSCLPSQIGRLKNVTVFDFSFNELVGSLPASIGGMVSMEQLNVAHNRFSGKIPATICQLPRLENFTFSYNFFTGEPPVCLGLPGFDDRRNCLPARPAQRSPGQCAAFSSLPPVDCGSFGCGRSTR
substance,measurement,setting,value
"RALF1: in vitro synthesized RALF1 peptide hormone (PHTD peptides); gene At1G02900; expressed as AD-RALF1 in yeast-two-hybrid (ATTKYISYQSLKRNSVPCSRRGASYYNCQNGAQANPYSRGCSKIARCRS; UniProt Q9SRY3 72-120, looked up)",pKd,LRX1 (LRX1^ΔE-FLAG),8.35
same,"affinity of LRX3 for RALF1, in words",LRX3 (LRX3^ΔE-FLAG),much lower affinity
same,pKd,LRX4 (LRX4^ΔE-FLAG),8.26
same,pKd,LRX5 (LRX5^ΔE-FLAG),8.46
same,interaction with LRX1^ΔE,LRX1^ΔE,shows binding to RALF1
same,interaction with LRX1,LRX1,yeast cells grew effectively in the presence of the two proteins; also recorded: indicates interaction of the LRX proteins with RALF1
same,interaction with LRX4,LRX4 [1],indicates interaction of the LRX proteins with RALF1
same,effect on LRX1^ΔE-FER^ECD interaction,[2],does not influence the interaction of LRX1^ΔE with FER^ECD; also recorded: did not affect the interaction between LRX1^ΔE and FER^ECD
same,root growth inhibition,Arabidopsis seedlings,effectively inhibited root growth of Arabidopsis seedlings; also recorded: significantly inhibited root growth
same,"binding to LRX3, LRX4, and LRX5","LRX3, LRX4, and LRX5",reported to bind
same,binding to LRX4,LRX4 [3],has been shown to bind RALF1
same,binding to FER,FER,also interacts with FER
